Laboratory results from PubChem BioAssay AID624167 (Sanford-Burnham Center for Chemical Genomics, 2012).
The source made the active and inactive calls.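 The calls were made as follows: active = mean IC50 for reducing PEG3 promoter reporter signal at or below a set limit, with IC50 above the limit in both counter screens; inactive = the rest, including counter screen hits.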

Tests used:
PEG-3 [1] = target: PEG-3 (UniProt Q6IN02); test: inhibition of PEG-3 promoter-driven reporter – cell-based, HeLa, luciferase, CREF/GAPDH counter-screen panel, dose response (AID 624167); details: HeLa PEG-Prom luciferase reporter, overnight, CREF/GAPDH counter-screens, mean of runs
PEG-3 [2] = test: as above; details: HeLa PEG-Prom luciferase reporter, overnight, CREF/GAPDH counter-screens
[3] = run 1, dose range 1, individual replicate IC50 per panel
[4] = run 2, dose range 1, individual replicate IC50 per panel

PEG-3 (UniProt Q6IN02), sequence (Q6IN02 whole entry, looked up): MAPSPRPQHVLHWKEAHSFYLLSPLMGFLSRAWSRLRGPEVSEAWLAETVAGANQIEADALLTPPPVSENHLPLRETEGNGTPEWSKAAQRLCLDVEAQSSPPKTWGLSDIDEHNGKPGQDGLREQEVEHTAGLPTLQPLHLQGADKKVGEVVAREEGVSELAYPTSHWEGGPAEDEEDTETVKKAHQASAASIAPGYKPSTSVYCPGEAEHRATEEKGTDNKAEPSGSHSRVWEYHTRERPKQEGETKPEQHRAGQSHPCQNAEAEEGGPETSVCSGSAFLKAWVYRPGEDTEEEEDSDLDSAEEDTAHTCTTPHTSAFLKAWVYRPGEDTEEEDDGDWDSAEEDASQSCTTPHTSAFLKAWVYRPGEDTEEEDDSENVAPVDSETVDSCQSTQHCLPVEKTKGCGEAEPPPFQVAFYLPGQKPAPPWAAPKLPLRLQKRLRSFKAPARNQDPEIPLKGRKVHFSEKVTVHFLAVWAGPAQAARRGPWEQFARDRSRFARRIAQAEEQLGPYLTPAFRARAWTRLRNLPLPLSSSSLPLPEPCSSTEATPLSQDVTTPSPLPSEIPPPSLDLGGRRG

Row | Structure (SMILES) | IC50 (PEG-3 [1]) | IC50 (PEG-3 [2]; [3]) [µM] | IC50 (PEG-3 [2]; [4]) [µM]
1 | O=C(CCl)Nc1cccc(-c2cnc3ccccc3n2)c1 | inactive | > 100 | 13.2
2 | CN1CCC(N(C)S(=O)(=O)c2ccc(NC(=O)COc3ccc(Br)cc3Cl)cc2)CC1 | 18.7 µM | 23 | 14.5
3 | CCN1CCN(Cc2c(O)ccc3c2O/C(=C\C=C\c2ccccc2)C3=O)CC1 | inactive | 46.6 | 11.5
4 | C/C(=N\N=C(N)N)c1ccc(Cl)c(Cl)c1 | 18.7 µM | 20.3 | 17
5 | O=C1NC(=O)N(Cc2ccc(F)cc2)C(=O)/C1=C\C=C\c1ccco1 | 14.9 µM | 16.8 | 13
6 | CCCCNc1c(-c2cccc(Sc3ccc(OC)cc3)c2)nc2ccccn12 | 13.6 µM | 16.7 | 10.6
7 | O=C1OCCC1Sc1nnc(-c2ccc(Cl)cc2Cl)o1 (configuration not stated) | inactive | 6.82 | 35.5
8 | Cc1ccc(N(Cc2cc(=O)[nH]c3ccccc23)C(=O)CCl)c(C)c1 | inactive | 22.9 | 29.4
9 | O=[N+]([O-])c1cc(Cl)cc(/C=N\Nc2ccccn2)c1O | inactive | 1.39 | > 100
10 | c1ccc(CN2CCC(Nc3nc(-c4cccnc4)nc4ccccc34)CC2)cc1 | inactive | 20.2 | 26.7
11 | O=C1NC(=O)N(Cc2ccccc2)C(=O)/C1=C\C=C\c1ccco1 | 13.5 µM | 15.1 | 12
12 | CC(C)c1ccc(/C=N/Nc2ccc(C(=O)O)cc2)cc1 | 15.3 µM | 11.1 | 19.4
13 | CCOc1ccc(Nc2c3ccccc3nc3ccccc23)cc1 | 16.9 µM | 21.9 | 11.9
14 | COc1cc(/C=C/C(=O)N2CCC=CC2=O)cc(OC)c1OC | 14 µM | 15.9 | 12.1
15 | COC(=O)c1ccc(Nc2cc(C)nc3ccc(C)cc23)cc1 | 13.6 µM | 17.9 | 9.4
16 | O=C(c1cc(-c2cccs2)nn1-c1ccccc1)N1CCN(S(=O)(=O)c2ccccc2)CC1 | inactive | 8.84 | > 100
17 | NC(=O)c1nsc(C(=O)N(c2ccccc2F)C(C(=O)NCc2ccc(F)cc2)c2ccc(O)cc2)c1N (configuration not stated) | inactive | 30.4 | 16.6

Row | Structure (SMILES) | IC50 (PEG-3 [1]) | IC50 (PEG-3 [2]; [3]) [µM] | IC50 (PEG-3 [2]; [4]) [µM]
18 | CC(C)n1cc(CN2CCC(C(=O)Nc3cccc(-c4cccc(Cl)c4)c3)CC2)cn1 | 13.4 µM | 17.4 | 9.39
19 | CC(C)(C)C(=O)Nc1cc2nn(-c3ccccc3)nc2cc1Cl | 12.2 µM | 10.9 | 13.5
20 | COc1cc(/C=C2\SC(=S)N(CCC(=O)N3CCCCC3)C2=O)cc(OC)c1OC | inactive | 35.1 | 19.1
21 | CC(=O)c1cccc(-c2csc3ncnc(Sc4nnnn4C)c23)c1 | 15.7 µM | 16 | 15.3
22 | CCCc1nc(SCC(=O)N2CCCc3ccccc32)c2c(=O)n(C)c(=O)n(C)c2n1 | inactive | 49 | 38.2
23 | CC(=O)Nc1cccc(-c2ccnc3c2CC(C)(C(=O)Nc2cccc(C(F)(F)F)c2)O3)c1 (configuration not stated) | inactive | 5.21 | > 100
24 | COc1ccc(C(c2nnnn2-c2c(C)cccc2C)N2CCC(n3c(=O)[nH]c4ccccc43)CC2)cc1 (configuration not stated) | 11.3 µM | 11.4 | 11.3
25 | CSc1ccc2c(c1)C(N1CCN(C)CC1)Cc1ccccc1S2 (configuration not stated) | 11.6 µM | 16.9 | 6.17
26 | Cc1cc(C(=O)COC(=O)c2ccccc2Br)c(C)n1CC1CCCO1 (configuration not stated) | inactive | 3.07 | 98.5
27 | O=C(Nc1cccc(S(=O)(=O)N2CCOCC2)c1)c1ccc2c(=O)n3c(nc2c1)CCCCC3 | inactive | 25.3 | 43.1
28 | COc1ccc(-c2nc3c(C(=O)NCCN(C)C)cccc3c3ccccc23)cc1 | 15 µM | 17.3 | 12.8
29 | COc1ccc(Nc2oc(COc3ccccc3OC)nc2C#N)cc1 | inactive | 5.83 | 39.4
30 | Cc1ccc(S(=O)(=O)CCSC(=N)N)cc1 | inactive | 36.6 | 42.7
31 | CCC(=C(c1ccc(OC)cc1)c1ccc(OC)cc1)c1cn(CC(O)CN2CCN(C)CC2)c2ccccc12 (configuration not stated) | 15.7 µM | 18.9 | 12.5
32 | O=C(Sc1cccc2cccnc12)c1ccccc1Br | 13.4 µM | 14 | 12.9
33 | COc1ccc(-c2cc(-c3ccc(F)cc3)nc(N3CCN(C)CC3)n2)cc1 | inactive | 21.6 | > 100
34 | CCN(CC)c1ccc2nc3ccc(N)cc3[n+](-c3ccccc3)c2c1 | 11.1 µM | 9.95 | 12.2
